The record followed here is patent US8920851B2, “Treatment of neurodegenerative diseases” (Velacor Therapeutics Pty Ltd, priority 2006, dated 2014).

The test system of one test is p70S6K. Format: cell-based, human. As to conditions: PC3 cells; LY294002 50 μM 1 hour, sodium selenate 500 μM 1 hour, okadaic acid 500 nM. The protocol:
5×10^5 PC3 prostate carcinoma cells were plated per well of a 6-well plate, allowed to attach for 8 hours, then serum starved overnight. […] Equal amounts of whole cell lysates (75 μg) were resolved by SDS-PAGE, and the level of p70S6K phosphorylation determined by immunoblot analysis with an antibody that specifically recognizes the p70S6K protein when phosphorylated on Thr389. Comparison is made with the protein loading control β tubulin.

The test system of another test is Akt. Kind of test: Akt phosphorylation by immunoblot in PC3 prostate carcinoma cells. Format: cell-based, human. As to conditions: PC3 cells. On the procedure: Such dephosphorylation may be the result of a direct inhibitory effect on the Akt protein itself, or alternatively, can be similarly achieved indirectly by boosting a negative regulator or inhibiting a positive regulator of Akt phosphorylation. […] PC3 prostate carcinoma cells were plated in 100 mm dishes, and when 70-80% confluent serum starved overnight. […] Cells were lysed, and the level of Akt Ser473 phosphorylation determined by immunoblot analysis with an activation specific antibody, and comparison made to levels of Akt protein expressed. To determine the effect on purified Akt, similarly plated but untreated PC3 cells were lysed in RIPA (minus phosphatase inhibitors), a stringent cell lysis buffer that minimizes maintenance of protein-protein complexes. […] The immunoprecipitated protein was then resolved and the level of activated Akt determined by immunoblot analysis as described above.
A reduction in net Akt activity could be achieved indirectly by either preventing the initial Akt phosphorylation, or alternatively, increasing Akt dephosphorylation [Kohn et. al. 1996]. […] Initially okadaic acid, a polyether toxin from red-tide algae (and causative agent of diarrhoetic shellfish poisoning) which inhibits the phospho-protein phosphatases PP1 and PP2A, two phosphatases implicated in the regulation of Akt dephosphorylation was used [Fernandez et al., 2002]. 5×10^5 PC3 prostate carcinoma cells were plated per well of a 6 well plate, allowed attach for 8 h, and then serum starved overnight. […] Lysed cells were resolved by SDS-PAGE, then probed for Akt phosphorylation at the Ser473 residue by immunoblot analysis with an antibody that specifically recognizes Akt when phosphorylated at this site, and comparison made with the total levels of Akt protein expressed (FIG. 2A).
This panel included tautamycin 500 nM (PP1), okadaic acid 500 nM (low dose PP2A>PP1), endothall A (PP2A) 100 μM, calyculin A 2 nM (low dose PP1>PP2A), calyculin A 10 nM (high dose inhibits PP1 and PP2A) and cyclosporine A 400 ng/ml (PP2B). […] Again, lysed cells were resolved by SDS-PAGE, then membranes probed for Akt phosphorylation at the Ser^473 residue by immunoblot analysis with an antibody that specifically recognizes Akt when phosphorylated at this site, and comparison made with the total levels of Akt protein expressed.
5×10^5 PC3 prostate carcinoma cells were plated per well in a 6-well plate, allowed to attach for 8 h, and then serum starved overnight. […] Equal amounts of whole cell lysates were resolved, and then subjected to immunoblot analysis to determine the level of phosphorylated Akt Ser^473. Comparison was then made with the total level of Akt protein expressed.
The phosphorylation status of Akt in whole cell lysates was determined using activation specific antibodies.
Other inorganic (sodium selenite, selenium dioxide, selenium sulphide and selenious acid) and organic (methylselenocysteine, selenocystine) selenium species were tested for their ability to affect Akt activation. All forms were dissolved in water with the exception of selenium sulphide which was solubilised in DMSO, and added to serum starved PC3 cells at a concentration of 500 μM for 1 hour, Whole cell lysates were then resolved, and the activation status of Akt determined by immunoblotting with an antibody that specifically recognizes Akt when phosphorylated at the Ser473 site, as well as the total level of Akt expression (pan Akt). To quantify the degree of Akt activation, immunoblots were digitalised, and the ratio of phosphorylated Akt to total Akt determined by densitometry.

The target of test [1] is T1, human PP2A A-C heterodimer (Homo sapiens, UniProt P67775).
T1 construct: purified PP2A A-C dimer purified from human red blood cells; purchased Upstate 14-111 (lot #28002); host or cells: human red blood cells (native purification)
T1 sequence (P67775 whole entry): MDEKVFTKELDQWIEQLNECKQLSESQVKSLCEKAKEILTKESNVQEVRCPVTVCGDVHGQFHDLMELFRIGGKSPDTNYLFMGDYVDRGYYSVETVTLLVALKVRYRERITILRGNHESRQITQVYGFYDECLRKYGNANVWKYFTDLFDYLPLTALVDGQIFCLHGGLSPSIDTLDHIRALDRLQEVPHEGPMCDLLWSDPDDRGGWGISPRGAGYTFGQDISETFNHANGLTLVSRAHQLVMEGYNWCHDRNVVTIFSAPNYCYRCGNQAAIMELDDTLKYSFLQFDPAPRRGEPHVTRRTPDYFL
T1 sequence (P30153 2-589 partner limits assumed): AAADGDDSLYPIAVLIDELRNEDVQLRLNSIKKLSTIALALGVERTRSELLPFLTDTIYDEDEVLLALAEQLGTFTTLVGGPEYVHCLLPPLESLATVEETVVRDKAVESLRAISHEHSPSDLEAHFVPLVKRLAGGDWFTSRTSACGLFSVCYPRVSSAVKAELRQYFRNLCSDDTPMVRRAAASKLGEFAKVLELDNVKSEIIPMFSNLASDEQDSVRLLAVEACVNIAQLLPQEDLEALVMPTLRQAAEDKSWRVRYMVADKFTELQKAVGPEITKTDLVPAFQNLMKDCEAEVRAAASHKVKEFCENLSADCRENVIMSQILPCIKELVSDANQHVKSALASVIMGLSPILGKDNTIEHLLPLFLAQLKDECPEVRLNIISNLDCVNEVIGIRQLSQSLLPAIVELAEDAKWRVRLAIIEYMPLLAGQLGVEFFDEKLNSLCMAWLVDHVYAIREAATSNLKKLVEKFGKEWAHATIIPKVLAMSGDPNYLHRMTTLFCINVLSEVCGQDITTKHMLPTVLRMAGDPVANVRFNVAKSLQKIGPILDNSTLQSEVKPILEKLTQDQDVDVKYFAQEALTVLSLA
Format: biochemical. The note with it: 0.05 U PP2A dimer, 30 min at 37° C.; sodium selenate 5 mM, okadaic acid 500 nM. On the procedure:
In initial assays a chemical substrate of phosphatase enzymatic action, para-nitrophennylphosphate (pNPP) was used, which following hydrolysis of the phosphate moiety generates para-nitrophenol, an intensely yellow chromogen which is soluble under alkaline conditions. […] Absorbance of each sample was measured in duplicate at 405 nm with 590 nm as a reference. PP2A activity was calculated using the following equation: activity=(sample vol in liters)×A405/1.78×104M^−1 cm^−1 (extinction coefficient)×0.25 cm×15 minutes×0.05 U enzyme Data is presented as mean relative phosphatase activity ±SEM from at least three independent experiments.
Para-nitrophennylphosphate (PNPP) is a chemical substrate of phosphatase enzymes, which following hydrolysis of the phosphate moiety generates para-nitrophenol, an intensely yellow chromogen, soluble under alkaline conditions. In assays measuring relative phosphatase activity, 0.05 U of purified PP2A was mixed with 5 μl of 40 mM NiCl2 and 5 μl of BSA solution (5 mg/ml) in a microcentrifuge tube. Various treatments were added as indicated, and the volume adjusted to 80 μl with pNPP assay buffer. Samples were pre-incubated at 37° C. for 15 min. pNPP substrate was freshly prepared before each assay by dissolving 1.5 mg/ml pNPP in 50 mM Tris-HCl, pH 7.0. To start the phosphatase reaction, 120 μl of pNPP substrate was added, and samples incubated for a further 15 min at 37° C. Absorbance of each sample was measured in duplicate at 405 nm with 590 nm as a reference. PP2A activity was calculated using the following equation: activity=(Sample volume in liters)×A405/1.78×10^4M^−1cm^−1 (Extinction coefficient)×0.25 cm×15 min×0.05 U enzyme.

Structures are written as SMILES.

`C=C1[C@@H](O)[C@@H]2O[C@]3(CC[C@H](/C=C/[C@@H](C)[C@@H]4CC(C)=C[C@@]5(O[C@H](C[C@@](C)(O)C(=O)O)CC[C@H]5O)O4)O3)CC[C@H]2O[C@@H]1[C@@H](O)C[C@H](C)[C@H]1O[C@@]2(CCCCO2)CC[C@H]1C` [okadaic acid]: the “p70S6K phosphorylation on Thr389” value in the test on p70S6K is “boosts the level of phosphorylation observed”. Moreover, the “effect of PPP inhibitor pretreatment on sodium selenate induced Akt Ser473 dephosphorylation” value with Akt (inhibitor 30 min (okadaic acid 500 nM, endothall A 100 μM, tautamycin 500 nM, calyculin A 2 nM, cyclosporine A 400 ng/ml), then sodium selenate 500 μM 1 h) is reported as “completely blocked sodium selenate induced Akt dephosphorylation”. The “effect of pretreatment on the sodium selenate induced reduction of Akt phosphorylation” value in the test with Akt (okadaic acid 5 nM 30 min, then sodium selenate 500 μM 1 h) was “unaffected”; in the test with Akt (okadaic acid 1000 nM 30 min, then sodium selenate 500 μM 1 h) it was “completely abolishes the inhibitory effect of sodium selenate”. Besides, the “Akt Ser473 phosphorylation in non-selenate controls” value with Akt (okadaic acid 1000 nM) is listed as “boosts Akt phosphorylation in non-selenate controls”. Moreover, the “PP2A phosphatase activity (pNPP)” value in test [1] is reported as “completely abolished”.
